Here are results for one compound from PMC5268383, “Inhibition of STAT3 by Anticancer Drug Bendamustine” (PLoS ONE, 2017).

Test [1] concerns the target T1, recombinant human STAT3 SH2 domain (Homo sapiens, UniProt P40763).
T1 construct: Full-length cDNAs were obtained from a human cDNA library by PCR; Avi-tag (biotinylated in BirA-BL21) (N); made in house; host or cells: Escherichia coli BirA-BL21
Nature of the test: AlphaScreen SH2 binding assay, STAT3. The protocol: (§1) AlphaScreen assays were performed in a final reaction volume of 25 μL of the assay buffer, containing 10 mM HEPES-NaOH (pH 7.4), 50 mM NaCl, 1 mM EDTA (pH 8.0), 0.1% NP-40, and 10 ng/mL BSA in a 96-well microtiter plate at 25°C. The labeled Phospho-Tyr (pTyr) peptide probe was 5-carboxyfluorescein (FITC)-GpYLPQTV for STAT3, FITC-GpYDKPHVL for STAT1, and FITC-PSpYVNVQN for Grb2. A DMSO solution of BENDA was incubated with 50 nM of each SH2-containing protein for 15 min, 50 nM of the corresponding FITC-pTyr peptide was added, and the mixture was incubated for 90 min. Streptavidin-coated donor beads and anti-FITC acceptor beads were added and incubated for 90 min before the signals were measured with an Envision Xcite plate reader (PerkinElmer Life Sciences, Waltham, MA, USA).
(In general: In Alpha technology, singlet oxygen from a donor bead excites a nearby acceptor bead.)

The next test addresses T2, STAT1 SH2 (Homo sapiens, UniProt P42224).
T2 construct: Avi-tag (N); 6His-tag (N)
Nature of the test: AlphaScreen SH2 binding assay, STAT1. As to the method: as §1

Another test addresses T3, rhSTAT3 (Homo sapiens, UniProt P40763).
T3 construct: Full-length cDNAs were obtained from a human cDNA library by PCR; Avi-tag (biotinylated in BirA-BL21) (N); made in house; host or cells: Escherichia coli BirA-BL21
The experiment in a line: Competition assay with cysteine-blocking reagent Alexa Fluor 488 C5 maleimide. The settings on record: 2 h, 10 μM Alexa Fluor 488 C5 maleimide. Format: binding. As to the method: rhSTAT3 (0.89 μM) in 100 mM HEPES was incubated with 10 μM Alexa Fluor 488 C5 maleimide (Invitrogen, Paisley, UK), a thiol-reactive probe, in the presence or absence of 50 or 100 μM BENDA or HP2 for 2 h at room temperature. Samples were diluted in SDS-PAGE sample buffer without boiling or 2-mercaptoethanol and run on an SDS-PAGE gel. The protein was transferred to a nitrocellulose membrane and then blotted with Ni-HRP. The Alexa-labeled rhSTAT3 was analyzed by fluorescence (excitation/emission: 493/516 nm) and western blotting with Ni-HRP.

Test [2] addresses T4, cellular STAT3 in MDA-MB-468 cells (Homo sapiens, UniProt P40763).
T4 construct: endogenous in cells; host or cells: MDA-MB-468
Nature of the test: Pull-down assay using Bio-BENDA, anti-STAT3 immunoprecipitation. Format: cell-based. The settings on record: 50 μM Bio-BENDA plus excess free drug, 4 h. As to the method:
MDA-MB-468 cells were treated with biotinylated BENDA (Bio-BENDA) in the presence or absence of an excess amount of free drugs for 4 h and then lysed in PhosphoSafe™ Extraction Reagent (Merck, Darmstadt, Germany). Lysate (200 μL) was precleared with a mixture of Protein G Plus/Protein A Agarose Suspension (EMD Millipore, Billerica, MA, USA) for 1 h at 4°C and protein A and G agarose were removed by centrifugation at 13,000 rpm for 10 min. The lysate (200 μL) was immunoprecipitated with STAT3 antibody (1 μL) overnight at 4°C on a shaker and the immunocomplex was captured by the addition of a Protein G Plus/Protein A Agarose Suspension (30 μL) slurry for 1 h at 4°C. Samples were washed five times with lysis buffer and then boiled four times in SDS-PAGE sample buffer and run on an SDS-PAGE gel. The protein was transferred to a nitrocellulose membrane. The membranes were blocked in 5% skim milk in TBS/0.1% Tween 20. They were then incubated with streptavidin-HRP diluted at 1:2000 in 1.5% skim milk in TBS (pH7.4)/0.1% Tween 20 overnight at 4°C. Immunoblots were developed by using a chemiluminescent substrate.

The target of test [3] is T5, nuclear STAT3 of MDA-MB-468 cells (Homo sapiens, UniProt P40763).
T5 construct: endogenous in cells; host or cells: MDA-MB-468
T5 sequence (P40763 2-770 limits assumed): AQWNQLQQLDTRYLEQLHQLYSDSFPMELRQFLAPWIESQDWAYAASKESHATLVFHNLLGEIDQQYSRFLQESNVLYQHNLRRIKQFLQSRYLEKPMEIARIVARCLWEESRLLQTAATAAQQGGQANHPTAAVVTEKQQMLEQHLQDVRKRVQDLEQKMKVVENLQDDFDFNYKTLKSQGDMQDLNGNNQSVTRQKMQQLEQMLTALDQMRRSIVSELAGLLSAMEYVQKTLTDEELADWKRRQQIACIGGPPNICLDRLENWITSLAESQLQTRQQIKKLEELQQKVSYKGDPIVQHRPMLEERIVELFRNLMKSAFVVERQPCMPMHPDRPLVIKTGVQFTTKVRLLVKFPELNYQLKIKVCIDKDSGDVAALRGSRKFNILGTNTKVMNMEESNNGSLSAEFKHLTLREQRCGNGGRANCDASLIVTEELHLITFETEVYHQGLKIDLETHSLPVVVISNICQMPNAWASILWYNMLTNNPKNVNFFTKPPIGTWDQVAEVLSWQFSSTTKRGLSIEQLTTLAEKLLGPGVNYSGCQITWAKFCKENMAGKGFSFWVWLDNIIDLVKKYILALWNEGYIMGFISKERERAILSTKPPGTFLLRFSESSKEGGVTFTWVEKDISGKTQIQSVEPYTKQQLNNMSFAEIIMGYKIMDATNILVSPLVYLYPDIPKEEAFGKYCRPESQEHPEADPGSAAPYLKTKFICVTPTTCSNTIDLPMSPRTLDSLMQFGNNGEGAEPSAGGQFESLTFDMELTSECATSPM
The experiment in a line: STAT3 DNA binding assay (TransAM ELISA). It is filed as cell-based. The settings on record: MDA-MB-468, 24 h; BENDA 25, 50, 100 μM, HP2 100 μM. The protocol: The DNA-binding activity of STAT3 was evaluated with a TransAM ELISA kit (Active Motif, Carlsbad, CA, USA). The assay and nuclear extract preparation were performed according to the manufacturer’s instructions. Heat-denatured nuclear extract was used as a negative control. The nuclear extract (20 μg) was added to each well of a 96-well microtiter plate coated with immobilized oligonucleotides containing the STAT3 consensus binding site and incubated at room temperature for 1 h. They were incubated with anti-STAT3 antibody for 1 h at room temperature, followed by HRP-conjugated antibody for 1 h at room temperature. The developing solution was added, the reaction was terminated by the addition of stop solution, and the absorbance was measured at 450 nm with a reference wavelength of 655 nm (SpectraMax M5SK, Molecular Devices, Sunnyvale, CA, USA).

Test [4] has as its target T6, STAT3-DNA complex (c-myc promoter) in MDA-MB-468 cells (Homo sapiens, UniProt P40763).
T6 construct: endogenous in cells; host or cells: MDA-MB-468
Nature of the test: ChIP assay, c-myc promoter binding by STAT3. It is filed as cell-based. The settings on record: MDA-MB-468, 8 h; BENDA 25, 50, 100 μM, HP2 50, 100 μM. The protocol:
A ChIP assay was performed with an ExactaChIP Human/Mouse STAT3 ChIP kit (R&D Systems, Minneapolis, MN, USA). MDA-MB-468 cancer cells were fixed with 1% formaldehyde and treated with the lysis buffer. After sonication, anti-STAT3 antibody or normal mouse IgG was added to the extract, followed by precipitation with Protein G Plus/Protein A Agarose Suspension. The eluted DNA fraction was used for PCR with human c-myc primers.

Test [5] deals with STAT3-Y705 phosphorylation in MDA-MB-468 cells. The experiment in a line: Western blotting of STAT3-Y705 phosphorylation. It is filed as cell-based, human. The settings on record: MDA-MB-468, 50 or 100 μM, 24 h. As to the method: Cells were treated with PhosphoSafe Extraction Reagent. Total proteins (40 μg) were subjected to SDS-PAGE and then transferred onto a nitrocellulose membrane. Membranes were blocked in 5% skim milk in TBS/0.1% Tween 20, incubated with primary antibodies diluted at 1:1000 in 1.5% skim milk in TBS (pH 7.4)/0.1% Tween 20 overnight at 4°C, and then incubated with HRP-conjugated secondary antibodies diluted at 1:5000 in TBS (pH 7.4)/0.1% Tween 20 for 1 h at room temperature. Immunoblots were developed with a chemiluminescent substrate.

Each structure is given as a SMILES string. “Also recorded” adds a separate entry of the source.

T1 sequence (P40763 whole entry, the tested form may be a part): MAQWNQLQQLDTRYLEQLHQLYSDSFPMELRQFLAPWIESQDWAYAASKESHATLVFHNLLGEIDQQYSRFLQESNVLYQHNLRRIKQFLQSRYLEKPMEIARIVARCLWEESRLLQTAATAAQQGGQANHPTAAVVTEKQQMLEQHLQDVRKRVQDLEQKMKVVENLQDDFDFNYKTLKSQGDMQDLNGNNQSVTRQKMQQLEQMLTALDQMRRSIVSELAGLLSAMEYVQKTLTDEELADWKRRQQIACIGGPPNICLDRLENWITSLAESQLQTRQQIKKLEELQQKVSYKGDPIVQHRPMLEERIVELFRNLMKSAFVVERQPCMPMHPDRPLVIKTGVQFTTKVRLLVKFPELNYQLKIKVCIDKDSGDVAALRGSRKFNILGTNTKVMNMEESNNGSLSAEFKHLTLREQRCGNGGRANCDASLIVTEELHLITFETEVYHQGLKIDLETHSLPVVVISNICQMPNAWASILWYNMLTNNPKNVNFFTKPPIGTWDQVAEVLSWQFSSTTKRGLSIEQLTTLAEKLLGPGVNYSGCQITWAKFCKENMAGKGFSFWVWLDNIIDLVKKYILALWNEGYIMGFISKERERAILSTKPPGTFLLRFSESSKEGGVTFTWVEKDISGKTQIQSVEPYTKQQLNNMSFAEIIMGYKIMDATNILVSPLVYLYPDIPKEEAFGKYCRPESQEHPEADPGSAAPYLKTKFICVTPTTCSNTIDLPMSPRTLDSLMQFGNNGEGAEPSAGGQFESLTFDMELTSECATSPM
T3 sequence (P40763 whole entry): as the sequence (P40763 whole entry, the tested form may be a part) above
T4 sequence (P40763 2-770 limits assumed): as the sequence (P40763 2-770 limits assumed) above
T6 sequence (P40763 2-770 limits assumed, one chain of several): as the sequence (P40763 2-770 limits assumed) above
T2 sequence (P42224 whole entry): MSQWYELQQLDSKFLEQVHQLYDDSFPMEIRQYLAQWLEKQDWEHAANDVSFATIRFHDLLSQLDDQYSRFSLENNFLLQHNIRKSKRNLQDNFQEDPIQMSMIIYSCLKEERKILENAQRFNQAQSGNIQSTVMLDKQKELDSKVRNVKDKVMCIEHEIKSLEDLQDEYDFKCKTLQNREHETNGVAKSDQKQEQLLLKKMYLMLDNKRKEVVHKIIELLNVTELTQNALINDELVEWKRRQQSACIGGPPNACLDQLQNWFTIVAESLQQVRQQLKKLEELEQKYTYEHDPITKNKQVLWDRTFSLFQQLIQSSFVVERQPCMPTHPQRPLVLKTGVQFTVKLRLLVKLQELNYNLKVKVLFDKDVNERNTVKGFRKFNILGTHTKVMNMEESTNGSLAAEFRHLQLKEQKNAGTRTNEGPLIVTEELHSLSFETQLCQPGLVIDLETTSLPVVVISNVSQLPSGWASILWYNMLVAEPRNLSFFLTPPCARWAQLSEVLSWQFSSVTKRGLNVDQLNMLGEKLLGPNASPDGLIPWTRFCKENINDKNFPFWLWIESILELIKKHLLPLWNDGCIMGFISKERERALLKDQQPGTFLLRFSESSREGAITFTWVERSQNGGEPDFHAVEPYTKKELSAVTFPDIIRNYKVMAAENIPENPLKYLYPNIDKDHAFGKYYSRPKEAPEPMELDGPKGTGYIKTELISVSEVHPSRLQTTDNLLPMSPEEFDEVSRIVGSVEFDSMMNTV

`Cn1c(CCCC(=O)O)nc2cc(N(CCCl)CCCl)ccc21` [BENDA, 4-{5-[bis(2-chloroethyl)amino]-1-methyl-2-benzimidazolyl} butyric acid]: the IC50 in test [1] was 7.4 µM; at STAT1 SH2 it was 60 µM. In addition, the “SH2 binding inhibition in presence of 2-mercaptoethanol” value in test [1] (200 μM (0.2 mM) 2-mercaptoethanol, data not shown) was “did not inhibit; also recorded: wholly inactivated”. Also, in test [1] (200 μM (0.2 mM) L-cysteine added to assay mixture), the “SH2 inhibitory activity in presence of excess L-cysteine” value is listed as “attenuated; also recorded: wholly inactivated”. The “Fluorescence intensity of Alexa-labeled rhSTAT3 (reduced to)” value on rhSTAT3 (50 μM compound) came to 62%; at rhSTAT3 (100 μM compound) it was 52%. In addition, the “Competition of Bio-BENDA STAT3 band intensity by excess free drug” value in test [2] is “competitively reduced”. Moreover, the “Inhibition of STAT3 binding to oligonucleotides containing STAT3 consensus binding site” value in test [3] was “inhibited”. Moreover, in test [4], the “Amplified c-myc promoter band in STAT3 ChIP” value is given as “reduced”. Also, in test [5], the “Phosphorylation of STAT3-Y705” value was “inhibited the phosphorylation of STAT3-Y705 in a concentration-dependent manner”.

What is called IC50 is the concentration needed to halve the response being measured.
